Measurements: US9321790B2, “Pyrimidinone derivatives as antimalarial agents” (SANOFI, priority 2012, dated 2016)
Like-named read-outs stand apart in the source and are kept apart here.

Legend:
[1] = tested on: Plasmodium falciparum (strain NF54); assay: Antimalarial activity test: growth of Plasmodium falciparum in infected human erythrocytes, 3H-hypoxanthine incorporation; assay type: cell-based; details: strain NF54 sensitive to chloroquine, 72 h total incubation
Experimental: The compounds according to the invention underwent pharmacological trials to determine their inhibitory effect on the growth of Plasmodium falciparum (strain NF54 sensitive to inhibition with chloroquine) in an in vitro test using infected human erythrocytes. The growth of the parasites is measured via the incorporation of tritiated hypoxanthine compared with the incorporation in the absence of drug. The tests are performed in 96-well microplates (Falcon™ 96-well microtiter plates, ref. No. 353072) in RPMI 1640 solutions (10.44 g/l) (without hypoxanthine) with HEPES (5.94 g/l), NaHCO3 (2.1 g/l), neomycin ([…])+AlbumaxR II (5 g/l) supplemented with human erythrocytes with a final hematocrit of 1.25% and a final parasitemia of 0.15%.
The stock solution of the compounds is prepared at 10 mg/mL in DMSO. For the test, fresh solutions at the desired concentrations are prepared in RPMI medium. For the test, 100 μl of compound are mixed with 100 μl of infected blood. For the determination of the IC50 values, the compounds are tested in twofold serial dilution.
The plates are incubated at 37° C. under a humid atmosphere with 93% N2, 4% CO2 and 3% O2. After 48 hours, 50 μl of ^3H-hypoxanthine (=0.5 μCi) in RPMI medium are added to each well and incubation is continued for a further 24 hours. Next, the plates are washed with distilled water and the cell lyzate is transferred onto fiberglass filters. The filters are dried and the radioactivity is determined by liquid scintillation. The results in cpm are converted into percentages of inhibition. The inhibitory activity is given by the concentration that inhibits 50% of the growth of the parasite relative to a control without compound.

human PI3Kα = human PI3Kα (Homo sapiens (Human), UniProt P42336); assay: Human PI3Kα activity test (luciferin/luciferase ATP consumption, KinaseGlo); assay type: biochemical; details: read-out: IC50 Human PI3Kα
Experimental: The test uses a luciferin/luciferase system to measure the concentration of ATP and its consumption during the enzymatic reaction.
After 90 minutes, the reaction is quenched by adding 20 μl/well of KinaseGlo reagent (Promega V6713). After 10 minutes in the dark, the luminescence is read using a PHERAStar microplate reader (reading at 0.8 sec/well).

[2] = Plasmodium falciparum, Erythrocyte
[3] = PI3Kα (p110α/p85α), 50 μM PIP2, 2 μM ATP, 90 minutes
[4] = known compounds of WO 2011/001 112 and WO 2011/001 113

Sequence of human PI3Kα (P42336 whole entry): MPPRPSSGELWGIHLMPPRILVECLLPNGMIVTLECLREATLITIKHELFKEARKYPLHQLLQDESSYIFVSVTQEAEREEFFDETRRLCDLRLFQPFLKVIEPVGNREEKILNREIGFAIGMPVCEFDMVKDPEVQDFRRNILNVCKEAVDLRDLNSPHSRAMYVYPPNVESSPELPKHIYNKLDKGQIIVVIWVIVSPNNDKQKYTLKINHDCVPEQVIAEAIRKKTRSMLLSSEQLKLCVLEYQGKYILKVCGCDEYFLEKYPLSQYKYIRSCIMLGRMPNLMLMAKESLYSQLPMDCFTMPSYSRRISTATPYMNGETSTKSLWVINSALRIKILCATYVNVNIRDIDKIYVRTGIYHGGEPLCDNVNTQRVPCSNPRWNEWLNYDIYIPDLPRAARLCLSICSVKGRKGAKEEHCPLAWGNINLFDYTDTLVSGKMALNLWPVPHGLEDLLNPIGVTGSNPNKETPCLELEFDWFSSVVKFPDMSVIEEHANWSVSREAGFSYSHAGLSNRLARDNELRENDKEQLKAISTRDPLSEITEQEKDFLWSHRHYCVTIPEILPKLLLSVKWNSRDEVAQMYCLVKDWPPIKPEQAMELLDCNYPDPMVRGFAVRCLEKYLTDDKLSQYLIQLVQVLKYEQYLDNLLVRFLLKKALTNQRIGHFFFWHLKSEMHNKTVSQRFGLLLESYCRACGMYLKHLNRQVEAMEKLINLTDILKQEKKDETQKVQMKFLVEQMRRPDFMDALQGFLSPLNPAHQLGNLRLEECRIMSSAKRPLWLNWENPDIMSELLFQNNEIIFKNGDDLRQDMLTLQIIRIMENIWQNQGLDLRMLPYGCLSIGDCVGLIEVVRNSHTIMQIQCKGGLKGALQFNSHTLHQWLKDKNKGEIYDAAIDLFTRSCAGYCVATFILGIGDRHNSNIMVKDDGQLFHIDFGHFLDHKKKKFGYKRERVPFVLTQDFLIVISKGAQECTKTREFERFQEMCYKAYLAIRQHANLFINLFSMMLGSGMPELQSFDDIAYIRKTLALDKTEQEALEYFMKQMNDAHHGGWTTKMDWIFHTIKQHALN
Sequence of human PI3Kα (P27986 whole entry partner): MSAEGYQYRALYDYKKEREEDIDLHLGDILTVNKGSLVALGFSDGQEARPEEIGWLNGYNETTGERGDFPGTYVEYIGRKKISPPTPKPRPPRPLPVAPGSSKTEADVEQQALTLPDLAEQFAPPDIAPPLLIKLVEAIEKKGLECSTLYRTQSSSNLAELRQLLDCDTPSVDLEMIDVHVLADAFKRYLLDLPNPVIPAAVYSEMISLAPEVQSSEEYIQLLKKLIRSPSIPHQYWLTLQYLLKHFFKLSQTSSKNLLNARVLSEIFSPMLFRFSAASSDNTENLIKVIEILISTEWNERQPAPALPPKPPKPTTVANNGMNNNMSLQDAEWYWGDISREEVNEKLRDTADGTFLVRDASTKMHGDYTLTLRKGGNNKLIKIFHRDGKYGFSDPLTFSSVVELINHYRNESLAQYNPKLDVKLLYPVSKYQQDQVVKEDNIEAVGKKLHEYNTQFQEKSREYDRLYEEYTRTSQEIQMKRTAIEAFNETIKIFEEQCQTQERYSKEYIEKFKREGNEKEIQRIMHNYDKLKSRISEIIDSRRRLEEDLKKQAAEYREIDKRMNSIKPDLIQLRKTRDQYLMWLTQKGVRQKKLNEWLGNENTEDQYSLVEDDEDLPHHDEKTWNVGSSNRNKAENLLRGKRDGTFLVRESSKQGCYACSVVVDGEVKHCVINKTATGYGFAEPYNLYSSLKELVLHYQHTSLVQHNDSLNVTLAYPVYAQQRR

SMILES	IC50 [1, 2] [nM]	IC50 (human PI3Kα; [3]) [nM]	IC50 (human PI3Kα; [4]) [nM]	IC50 [1] [nM]
COc1ccc(C(=O)CN2c3nc(N4C[C@@H]5C[C@H]4CO5)cc(=O)n3CC[C@H]2C(F)(F)F)cn1 [Compound 45, (8S)-9-[2-(6-methoxypyrid-3-yl)-2-oxoethyl]-2-(1S,4S)-2-oxa-5-azabicyclo[2.2.1]hept-5-yl-8-trifluoromethyl-6,7,8,9-tetrahydropyrimido[1,2-a]pyrimidin-4-one]	112	> 10000	–	–
Cc1nscc1C(=O)CN1c2nc(N3C[C@@H]4C[C@H]3CO4)cc(=O)n2CC[C@H]1C(F)(F)F [Compound 107, (8S)-9-[2-(3-Methylisothiazol-4-yl)-2-oxoethyl]-2-(1S,4S)-2-oxa-5-azabicyclo[2.2.1]hept-5-yl-8-trifluoromethyl-6,7,8,9-tetrahydropyrimido[1,2-a]pyrimidin-4-one]	100	> 10000	–	–
Cc1ccc(C(=O)CN2c3nc(N4C[C@@H]5C[C@H]4CO5)cc(=O)n3CC[C@H]2C(F)(F)F)cn1 [Compound 4, (8S)-9-[2-(6-methylpyrid-3-yl)-2-oxoethyl]-2-(1S,4S)-2-oxa-5-azabicyclo[2.2.1]hept-5-yl-8-trifluoromethyl-6,7,8,9-tetrahydropyrimido[1,2-a]pyrimidin-4-one]	58	> 10000	–	–
Nc1ccc(C(=O)CN2c3nc(N4CC5CC4CO5)cc(=O)n3CC[C@H]2C(F)(F)F)cn1 (stereo partly drawn) [Compound 3, (8S)-9-[2-(6-Aminopyrid-3-yl)-2-oxoethyl]-2-oxa-5-azabicyclo[2.2.1]hept-5-yl-8-trifluoromethyl-6,7,8,9-tetrahydropyrimido[1,2-a]pyrimidin-4-one]	–	7200	–	13
Cc1nc(CN2c3nc(N4C[C@@H]5C[C@H]4CO5)cc(=O)n3CC[C@H]2C(F)(F)F)no1 [Compound 59, (8S)-9-(5-Methyl-[1,2,4]oxadiazol-3-ylmethyl)-2-(1S,4S)-2-oxa-5-azabicyclo[2.2.1]hept-5-yl-8-trifluoromethyl-6,7,8,9-tetrahydropyrimido[1,2-a]pyrimidin-4-one]	87	> 10000	–	–
O=C(CN1c2nc(N3C[C@@H]4C[C@H]3CO4)cc(=O)n2CC[C@H]1C(F)(F)F)c1cccnc1C(F)(F)F [Compound 60, (8S)-2-(1S,4S)-2-Oxa-5-azabicyclo[2.2.1]hept-5-yl-9-[2-oxo-2-(2-trifluoromethylpyrid-3-yl)ethyl]-8-trifluoromethyl-6,7,8,9-tetrahydropyrimido[1,2-a]pyrimidin-4-one]	–	> 10000	–	19
COc1ccc(CCN2c3nc(N4CCOCC4)cc(=O)n3C[C@@]2(C)C(F)(F)F)cc1 [Example 1 (p. 39, WO 2011/001 112), reference compound]	–	–	15	–
O=C(CN1c2nc(N3CC4CCC(C3)O4)cc(=O)n2CC[C@H]1C(F)(F)F)c1cccnc1 [Compound 87, (8S)-2-(8-Oxa-3-azabicyclo[3.2.1]oct-3-yl)-9-(2-oxo-2-pyrid-3-ylethyl)-8-trifluoromethyl-6,7,8,9-tetrahydropyrimido[1,2-a]pyrimidin-4-one]	–	≥ 10000	–	–
COc1ccc(CCN2c3nc(N4CCOCC4)cc(=O)n3CC[C@H]2C(F)(F)F)cc1 [Example 1 (p. 44, WO 2011/001 113), reference compound]	–	–	9	–
C[C@@]1(C(F)(F)F)Cn2c(nc(N3CCOCC3)cc2=O)N1C[C@@H](O)c1ccccc1 [Example 10 (p. 61, WO 2011/001 112), reference compound]	–	–	17	–

Continued, in another order:

IC50 [1, 2] [nM]	IC50 (human PI3Kα; [3]) [nM]	IC50 (human PI3Kα; [4]) [nM]	SMILES	IC50 [1] [nM]
42	> 10000	–	Cc1ncsc1C(=O)CN1c2nc(N3C[C@@H]4C[C@H]3CO4)cc(=O)n2CC[C@H]1C(F)(F)F [Compound 43, (8S)-9-[2-(4-methylthiazol-5-yl)-2-oxoethyl]-2-(1S,4S)-2-oxa-5-azabicyclo[2.2.1]hept-5-yl-8-trifluoromethyl-6,7,8,9-tetrahydropyrimido[1,2-a]pyrimidin-4-one]	–
< 4.5	1530	–	Cc1n[nH]c(C)c1CCN1c2nc(N3C[C@@H]4C[C@H]3CO4)cc(=O)n2CC[C@H]1C(F)(F)F [Compound 27, (8S)-9-[2-(3,5-Dimethyl-1H-pyrazol-4-yl)ethyl]-2-(1S,4S)-2-oxa-5-azabicyclo[2.2.1]hept-5-yl-8-trifluoromethyl-6,7,8,9-tetrahydropyrimido[1,2-a]pyrimidin-4-one]	–
–	1600	–	O=c1cc(N2CC3CCC(C2)O3)nc2n1CC[C@@H](C(F)(F)F)N2C[C@@H](O)c1ccccc1 [Compound 80, (8S)-9-((S)-2-hydroxy-2-phenylethyl)-2-(8-oxa-3-azabicyclo[3.2.1]oct-3-yl)-8-trifluoromethyl-6,7,8,9-tetrahydropyrimido[1,2-a]pyrimidin-4-one]	–
10	2000	–	Cc1ncsc1CCN1c2nc(N3C[C@@H]4C[C@H]3CO4)cc(=O)n2C[C@@]1(C)C(F)(F)F [Compound 26, 2-methyl-1-[2-(4-methylthiazol-5-yl)ethyl]-7-(1S,4S)-2-oxa-5-azabicyclo[2.2.1]hept-5-yl-2-((S)-trifluoromethyl)-2,3-dihydro-1H-imidazo[1,2-a]pyrimidin-5-one]	–
3	590	–	O=C(COc1ccc(CCN2c3nc(N4C[C@@H]5C[C@H]4CO5)cc(=O)n3CC[C@H]2C(F)(F)F)cc1)N1CCOCC1 [Compound 115, (S)-9-{2-[4-(2-Morpholin-4-yl-2-oxoethoxy)phenyl]ethyl}-2-(1S,4S)-2-oxa-5-azabicyclo[2.2.1]hept-5-yl-8-trifluoromethyl-6,7,8,9-tetrahydropyrimido[1,2-a]pyrimidin-4-one]	–
8	4300	–	CC(C)(O)CCN1c2nc(N3C[C@@H]4C[C@H]3CO4)cc(=O)n2CC[C@H]1C(F)(F)F [Compound 50, (8S)-9-(3-hydroxy-3-methylbutyl)-2-(1S,4S)-2-oxa-5-azabicyclo[2.2.1]hept-5-yl-8-trifluoromethyl-6,7,8,9-tetrahydropyrimido[1,2-a]pyrimidin-4-one]	–
23	810	–	COc1cc(F)ccc1[C@H](O)CN1c2nc(N3CC4CCC(C3)O4)cc(=O)n2CC[C@H]1C(F)(F)F [Compound 71, (8S)-9-[(S)-2-(4-fluoro-2-methoxyphenyl)-2-hydroxyethyl]-2-(8-oxa-3-azabicyclo[3.2.1]oct-3-yl)-8-trifluoromethyl-6,7,8,9-tetrahydropyrimido[1,2-a]pyrimidin-4-one]	–
140	5770	–	O=C(CN1c2nc(N3C[C@@H]4C[C@H]3CO4)cc(=O)n2CC[C@H]1C(F)(F)F)c1cnc2c(c1)OCCN2 [Compound 38, (8S)-9-[2-(3,4-dihydro-2H-pyrido[3,2-b][1,4]oxazin-7-yl)-2-oxoethyl]-2-(1S,4S)-2-oxa-5-azabicyclo[2.2.1]hept-5-yl-8-trifluoromethyl-6,7,8,9-tetrahydropyrimido[1,2-a]pyrimidin-4-one]	–
–	2000	–	COc1ccc(CCN2c3nc(N4CC5CCC(C4)O5)cc(=O)n3CC[C@H]2C(F)(F)F)cc1 [Compound 81, (8S)-9-[2-(4-Methoxyphenyl)ethyl]-2-(8-oxa-3-azabicyclo[3.2.1]oct-3-yl)-8-trifluoromethyl-6,7,8,9-tetrahydropyrimido[1,2-a]pyrimidin-4-one]	–
